What was measured:
[1] = target: T1, Alpha-2A adrenergic receptor (Homo sapiens, UniProt P08913); type: functional, cell-based
T1 sequence (P08913 whole entry): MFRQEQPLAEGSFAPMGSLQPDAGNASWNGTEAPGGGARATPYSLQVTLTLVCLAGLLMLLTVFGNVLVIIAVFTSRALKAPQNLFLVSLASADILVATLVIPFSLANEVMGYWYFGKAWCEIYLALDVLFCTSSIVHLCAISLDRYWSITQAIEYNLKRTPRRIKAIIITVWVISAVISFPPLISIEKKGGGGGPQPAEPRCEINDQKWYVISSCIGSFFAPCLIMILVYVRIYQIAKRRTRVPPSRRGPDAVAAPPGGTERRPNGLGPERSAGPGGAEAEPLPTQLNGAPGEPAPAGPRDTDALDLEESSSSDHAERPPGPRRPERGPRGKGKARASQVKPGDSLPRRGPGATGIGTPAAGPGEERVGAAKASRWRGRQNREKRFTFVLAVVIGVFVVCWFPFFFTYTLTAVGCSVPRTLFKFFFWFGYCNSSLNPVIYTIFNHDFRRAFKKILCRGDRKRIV

[2] = target: T2, Gamma-aminobutyric acid receptor subunit alpha-1 (Rattus norvegicus, UniProt P62813)
[3] = target: T2, Gamma-aminobutyric acid receptor subunit alpha-1; type: functional
[4] = target: 5-hydroxytryptamine receptor 2B (Homo sapiens, UniProt P41595); type: functional, cell-based
Mu-type opioid receptor = Mu-type opioid receptor (Homo sapiens, UniProt P35372)
[5] = target: T3, Alpha-1A adrenergic receptor (Homo sapiens, UniProt P35348); type: functional, cell-based
T3 sequence (P35348 whole entry): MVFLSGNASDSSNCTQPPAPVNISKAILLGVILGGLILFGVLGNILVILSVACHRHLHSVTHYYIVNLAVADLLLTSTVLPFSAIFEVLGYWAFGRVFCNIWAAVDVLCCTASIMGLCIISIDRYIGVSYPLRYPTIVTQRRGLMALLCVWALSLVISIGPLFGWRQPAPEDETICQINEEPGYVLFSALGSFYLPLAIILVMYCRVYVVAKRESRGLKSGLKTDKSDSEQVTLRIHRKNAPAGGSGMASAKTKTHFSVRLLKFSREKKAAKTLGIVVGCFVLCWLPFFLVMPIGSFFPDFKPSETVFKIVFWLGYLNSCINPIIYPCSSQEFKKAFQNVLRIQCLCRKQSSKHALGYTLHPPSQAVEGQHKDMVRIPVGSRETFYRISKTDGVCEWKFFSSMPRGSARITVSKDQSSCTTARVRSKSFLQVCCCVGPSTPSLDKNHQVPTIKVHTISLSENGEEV

Histamine H3 receptor = Histamine H3 receptor (Homo sapiens, UniProt Q9Y5N1)
[6] = target: T4, 5-hydroxytryptamine receptor 1A (Homo sapiens, UniProt P08908)
T4 sequence (P08908 whole entry): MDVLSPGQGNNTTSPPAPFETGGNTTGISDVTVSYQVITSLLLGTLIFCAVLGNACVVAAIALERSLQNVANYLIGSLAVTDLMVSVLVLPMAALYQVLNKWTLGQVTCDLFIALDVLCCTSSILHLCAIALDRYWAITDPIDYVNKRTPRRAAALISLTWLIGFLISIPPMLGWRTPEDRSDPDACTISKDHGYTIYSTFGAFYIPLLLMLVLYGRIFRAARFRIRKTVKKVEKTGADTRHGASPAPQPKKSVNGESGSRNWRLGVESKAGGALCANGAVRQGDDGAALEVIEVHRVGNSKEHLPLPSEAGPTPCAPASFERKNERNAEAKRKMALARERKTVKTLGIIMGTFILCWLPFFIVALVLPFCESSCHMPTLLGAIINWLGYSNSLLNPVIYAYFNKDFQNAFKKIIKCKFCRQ

Progesterone receptor = target: T5, Progesterone receptor (Homo sapiens, UniProt P06401)
T5 sequence (P06401 whole entry): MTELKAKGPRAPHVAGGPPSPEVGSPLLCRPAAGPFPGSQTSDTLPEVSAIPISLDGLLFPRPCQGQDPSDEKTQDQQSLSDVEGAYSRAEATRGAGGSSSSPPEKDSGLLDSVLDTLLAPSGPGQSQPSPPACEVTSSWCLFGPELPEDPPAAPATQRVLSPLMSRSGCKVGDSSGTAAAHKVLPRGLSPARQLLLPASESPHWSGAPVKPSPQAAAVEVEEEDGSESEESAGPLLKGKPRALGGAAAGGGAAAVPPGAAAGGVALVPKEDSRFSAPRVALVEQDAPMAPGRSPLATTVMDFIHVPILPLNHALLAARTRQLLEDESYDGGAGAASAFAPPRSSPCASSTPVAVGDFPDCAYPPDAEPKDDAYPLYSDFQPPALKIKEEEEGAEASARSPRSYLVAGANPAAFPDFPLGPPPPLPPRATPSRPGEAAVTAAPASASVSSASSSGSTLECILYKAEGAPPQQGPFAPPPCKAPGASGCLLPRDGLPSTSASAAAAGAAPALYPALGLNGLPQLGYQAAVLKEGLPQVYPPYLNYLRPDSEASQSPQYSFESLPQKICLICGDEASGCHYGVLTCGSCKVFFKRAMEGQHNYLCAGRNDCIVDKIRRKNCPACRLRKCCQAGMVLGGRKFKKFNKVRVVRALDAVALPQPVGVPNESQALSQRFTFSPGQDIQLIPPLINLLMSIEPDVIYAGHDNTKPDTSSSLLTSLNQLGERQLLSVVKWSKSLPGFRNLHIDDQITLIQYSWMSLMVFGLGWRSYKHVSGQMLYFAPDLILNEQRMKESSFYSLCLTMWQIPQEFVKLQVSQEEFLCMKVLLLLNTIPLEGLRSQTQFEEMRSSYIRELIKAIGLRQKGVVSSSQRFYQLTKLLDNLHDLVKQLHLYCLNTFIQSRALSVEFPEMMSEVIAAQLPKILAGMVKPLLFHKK

[7] = target: Sodium-dependent dopamine transporter (Homo sapiens, UniProt Q01959)
[8] = target: 5-hydroxytryptamine receptor 2A (Homo sapiens, UniProt P28223); type: functional, cell-based
Further: assay procedure not described here.

Chain of Mu-type opioid receptor (P35372 whole entry): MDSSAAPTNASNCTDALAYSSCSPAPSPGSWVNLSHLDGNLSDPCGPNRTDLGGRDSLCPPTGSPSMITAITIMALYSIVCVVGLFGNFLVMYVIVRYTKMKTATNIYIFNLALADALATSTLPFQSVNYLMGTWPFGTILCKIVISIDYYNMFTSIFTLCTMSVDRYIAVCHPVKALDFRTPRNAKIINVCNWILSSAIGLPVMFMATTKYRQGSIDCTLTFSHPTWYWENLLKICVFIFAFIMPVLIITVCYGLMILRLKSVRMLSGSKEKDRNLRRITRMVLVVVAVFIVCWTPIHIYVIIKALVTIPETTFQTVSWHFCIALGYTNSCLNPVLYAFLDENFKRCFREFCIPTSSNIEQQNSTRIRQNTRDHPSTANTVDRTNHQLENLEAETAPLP
Chain of 5-hydroxytryptamine receptor 2A (P28223 whole entry): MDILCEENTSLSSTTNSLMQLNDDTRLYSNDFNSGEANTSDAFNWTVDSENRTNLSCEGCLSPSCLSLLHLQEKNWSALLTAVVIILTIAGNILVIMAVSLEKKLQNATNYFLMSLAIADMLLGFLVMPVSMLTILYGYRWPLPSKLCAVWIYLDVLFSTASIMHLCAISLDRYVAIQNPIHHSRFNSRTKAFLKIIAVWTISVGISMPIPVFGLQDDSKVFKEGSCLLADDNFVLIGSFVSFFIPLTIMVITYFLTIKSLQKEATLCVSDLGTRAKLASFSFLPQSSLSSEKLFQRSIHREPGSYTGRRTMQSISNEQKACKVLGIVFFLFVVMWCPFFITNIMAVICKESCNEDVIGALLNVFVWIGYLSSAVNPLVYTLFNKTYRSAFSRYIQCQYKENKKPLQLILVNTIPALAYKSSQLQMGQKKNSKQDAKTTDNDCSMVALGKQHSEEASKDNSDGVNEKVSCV
Chain of 5-hydroxytryptamine receptor 2B (P41595 whole entry): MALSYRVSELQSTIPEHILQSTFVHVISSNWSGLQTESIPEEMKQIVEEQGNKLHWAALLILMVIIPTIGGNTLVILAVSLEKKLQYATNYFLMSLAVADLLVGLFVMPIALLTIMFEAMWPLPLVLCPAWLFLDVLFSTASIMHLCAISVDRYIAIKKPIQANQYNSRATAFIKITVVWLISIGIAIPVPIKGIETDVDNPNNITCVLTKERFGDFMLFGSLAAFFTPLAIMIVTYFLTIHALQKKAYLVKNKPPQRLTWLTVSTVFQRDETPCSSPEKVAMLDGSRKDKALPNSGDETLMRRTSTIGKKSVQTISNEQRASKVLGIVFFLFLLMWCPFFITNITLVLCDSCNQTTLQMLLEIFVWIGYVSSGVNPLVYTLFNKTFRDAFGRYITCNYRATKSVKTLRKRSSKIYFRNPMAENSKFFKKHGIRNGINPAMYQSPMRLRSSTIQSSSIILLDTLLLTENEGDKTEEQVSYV
Chain of Sodium-dependent dopamine transporter (Q01959 whole entry): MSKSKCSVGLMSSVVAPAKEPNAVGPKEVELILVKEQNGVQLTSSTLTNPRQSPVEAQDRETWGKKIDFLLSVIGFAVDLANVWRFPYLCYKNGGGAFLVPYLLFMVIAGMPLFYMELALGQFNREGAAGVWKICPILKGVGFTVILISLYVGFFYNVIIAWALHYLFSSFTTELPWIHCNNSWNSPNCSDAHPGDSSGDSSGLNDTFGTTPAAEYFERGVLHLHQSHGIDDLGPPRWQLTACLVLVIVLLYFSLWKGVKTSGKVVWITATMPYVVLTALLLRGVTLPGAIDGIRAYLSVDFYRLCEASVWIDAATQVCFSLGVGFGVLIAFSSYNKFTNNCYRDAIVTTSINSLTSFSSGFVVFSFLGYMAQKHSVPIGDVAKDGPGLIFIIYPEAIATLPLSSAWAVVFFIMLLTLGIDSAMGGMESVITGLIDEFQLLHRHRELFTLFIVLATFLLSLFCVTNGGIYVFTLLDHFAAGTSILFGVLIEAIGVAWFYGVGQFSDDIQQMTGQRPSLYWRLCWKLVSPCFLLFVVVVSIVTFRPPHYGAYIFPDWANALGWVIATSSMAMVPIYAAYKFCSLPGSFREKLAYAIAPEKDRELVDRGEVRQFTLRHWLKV
Chain of Histamine H3 receptor (Q9Y5N1 whole entry): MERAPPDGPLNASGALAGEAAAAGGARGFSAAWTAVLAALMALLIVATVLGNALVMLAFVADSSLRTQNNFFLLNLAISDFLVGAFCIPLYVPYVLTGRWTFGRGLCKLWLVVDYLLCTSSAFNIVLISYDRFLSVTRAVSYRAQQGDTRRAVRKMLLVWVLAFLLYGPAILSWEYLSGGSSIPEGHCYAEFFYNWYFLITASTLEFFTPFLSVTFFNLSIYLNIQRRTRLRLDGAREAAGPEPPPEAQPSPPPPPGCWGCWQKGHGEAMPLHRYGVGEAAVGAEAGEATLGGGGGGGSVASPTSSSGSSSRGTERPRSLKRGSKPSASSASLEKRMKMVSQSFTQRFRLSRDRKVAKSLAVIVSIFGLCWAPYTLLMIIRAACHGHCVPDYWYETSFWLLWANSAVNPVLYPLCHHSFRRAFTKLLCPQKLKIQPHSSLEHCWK
T2 sequence (P62813 whole entry): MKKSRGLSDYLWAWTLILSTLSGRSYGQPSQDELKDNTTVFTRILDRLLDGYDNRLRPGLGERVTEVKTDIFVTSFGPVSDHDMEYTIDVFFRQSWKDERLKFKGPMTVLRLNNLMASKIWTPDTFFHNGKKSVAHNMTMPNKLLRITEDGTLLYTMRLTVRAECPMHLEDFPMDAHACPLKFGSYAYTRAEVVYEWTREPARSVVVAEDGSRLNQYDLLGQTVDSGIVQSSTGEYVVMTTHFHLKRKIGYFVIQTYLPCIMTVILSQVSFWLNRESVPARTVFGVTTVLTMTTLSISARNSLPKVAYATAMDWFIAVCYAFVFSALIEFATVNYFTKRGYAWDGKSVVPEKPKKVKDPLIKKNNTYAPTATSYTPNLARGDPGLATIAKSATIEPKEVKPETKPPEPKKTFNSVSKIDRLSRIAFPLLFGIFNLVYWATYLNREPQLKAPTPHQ

SMILES	AC50 [1] [µM]	AC50 [2] [µM]	AC50 [3] [µM]	AC50 [4] [µM]	AC50 (Mu-type opioid receptor) [µM]	AC50 [5] [µM]	AC50 (Histamine H3 receptor) [µM]	AC50 [6] [µM]	AC50 (Progesterone receptor) [µM]	AC50 [7] [µM]	AC50 [8] [µM]
CNC1=Nc2ccc(Cl)cc2C(c2ccccc2)=[N+]([O-])C1 [CHLORDIAZEPOXIDE]	> 10	> 10	0.79	> 10	> 10	> 30	–	–	–	–	–
CCC[C@H](NC(=O)[C@@H]1[C@H]2CCC[C@H]2CN1C(=O)[C@@H](NC(=O)[C@@H](NC(=O)c1cnccn1)C1CCCCC1)C(C)(C)C)C(=O)C(=O)NC1CC1	–	> 10	> 10	–	> 30	–	–	–	–	–	–
CCCCC1C(=O)N(c2ccccc2)N(c2ccccc2)C1=O [PHENYLBUTAZONE]	> 10	> 10	> 10	> 10	> 30	–	–	–	–	–	–
CC(CCc1ccc(O)cc1)NCCc1ccc(O)c(O)c1 (stereo not drawn) [DOBUTAMINE]	> 30	> 30	> 30	> 30	1.7	–	–	–	–	–	–
C[C@H](Cc1cc2c(c(C(N)=O)c1)N(CCCO)CC2)NCCOc1ccccc1OCC(F)(F)F [SILODOSIN]	10	–	–	–	–	0.0029	> 30	0.003	> 30	18.6	–
OC1(c2ccc(Cl)cc2)c2ccccc2C2=NCCN21 (stereo not drawn) [MAZINDOL]	> 30	> 30	> 30	> 30	> 10	> 30	–	–	–	–	–
CC(C)COCC(CN(Cc1ccccc1)c1ccccc1)N1CCCC1 (stereo not drawn) [BEPRIDIL]	> 30	–	–	> 30	–	–	–	–	–	–	22
CCC(=O)O[C@]1(C(=O)SCF)[C@H](C)C[C@H]2[C@@H]3C[C@H](F)C4=CC(=O)C=C[C@]4(C)[C@@]3(F)[C@@H](O)C[C@@]21C [FLUTICASONE PROPIONATE]	> 30	> 30	> 30	> 30	> 30	> 30	> 30	> 30	–	> 30	–
CCC(C)C1(CC)C(=O)NC(=O)NC1=O (stereo not drawn) [BUTABARBITAL]	> 30	–	–	> 30	–	> 30	–	–	–	–	> 30
CN1CCN(C2=Nc3ccccc3Oc3ccc(Cl)cc32)CC1 [LOXAPINE]	–	> 10	> 10	–	13	0.44	> 30	3.95	> 30	23.3	–
[H]/N=C(/N)N/C(=N/[H])NCCc1ccccc1 [PHENFORMIN]	> 10	> 10	> 10	> 30	> 30	–	–	–	–	–	–
CC(C)NCC(O)c1ccc(O)c(O)c1 (stereo not drawn) [ISOPROTERENOL]	–	> 10	> 10	> 10	> 30	–	–	–	–	–	–
Cc1noc(NS(=O)(=O)c2ccc(N)cc2)c1C [SULFISOXAZOLE]	> 10	> 10	> 10	> 10	> 30	22	–	–	–	–	–
Cc1cc2cc3c(C)cc(=O)oc3c(C)c2o1 [TRIOXSALEN]	> 10	> 10	> 10	> 10	> 30	–	–	–	–	–	–
C=CCNc1nc(NCC=C)nc(N2CCN(C(c3ccc(F)cc3)c3ccc(F)cc3)CC2)n1 [ALMITRINE]	> 30	> 30	> 30	> 30	–	–	–	–	–	–	> 30
C/N=C(\NC)NCc1ccccc1 [BETHANIDINE]	> 30	–	> 30	> 30	–	> 30	–	–	–	–	> 30
CC(C)[C@H](N)C(=O)OCC(CO)OCn1cnc2c(=O)nc(N)[nH]c21 (stereo partly drawn) [VALGANCICLOVIR]	> 30	> 30	> 30	> 30	–	–	–	–	–	–	> 30
CC(C(=O)O)c1ccc(-c2ccccc2)c(F)c1 (stereo not drawn) [FLURBIPROFEN]	> 10	> 10	> 10	> 10	> 30	–	> 30	> 30	–	> 30	–
Nc1ncn([C@H]2C[C@H](O)[C@@H](CO)O2)c(=O)n1 [DECITABINE]	> 30	> 30	> 30	> 30	–	–	–	–	–	–	> 30
CN1CCC(=C2c3ccccc3CCc3cccnc32)CC1 [AZATADINE]	> 10	> 10	> 10	> 10	> 30	> 30	–	–	–	–	–
CCCC(CCC)C(N)=O [VALPROMIDE]	> 10	> 10	> 10	> 10	> 30	> 30	–	–	–	–	–
CC12CC3CC(C)(C1)CC(N)(C3)C2 [MEMANTINE]	> 10	> 10	> 10	> 10	> 10	> 30	–	–	–	–	–
CCCN[C@H]1CCc2nc(N)sc2C1 [PRAMIPEXOLE]	–	> 10	> 10	> 10	> 30	13	–	–	–	–	–
CCCCC(=O)O[C@]1(C(=O)CO)[C@@H](C)C[C@H]2[C@@H]3CCC4=CC(=O)C=C[C@]4(C)[C@@]3(F)[C@@H](O)C[C@@]21C [BETAMETHASONE VALERATE]	> 10	> 10	> 10	> 10	> 30	> 30	–	–	–	–	–
CC(N)C(O)c1ccccc1 (stereo not drawn) [PHENYLPROPANOLAMINE]	> 10	> 10	> 10	> 10	> 10	> 30	–	–	–	–	–
CCOC(=O)C1=C(C)NC(C)=C(C(=O)OC)C1c1cccc([N+](=O)[O-])c1 (stereo not drawn) [NITRENDIPINE]	> 10	> 10	> 10	> 10	> 30	> 30	–	–	–	–	–
CCOC(=O)N1CSC[C@H]1C(=O)O [TELMESTEINE]	–	–	–	–	–	–	> 30	> 30	> 30	> 30	–

Reference: ChEMBL document CHEMBL5291721, “A preclinical secondary pharmacology resource illuminates target-adverse drug reaction associations of marketed drugs” (Nat Commun, 2023)
